Experimental findings from US20180282323A1, “Mesoionic imidazole derivatives as insecticides” (BAYER CROPSCIENCE AKTIENGESELLSCHAFT, priority 2015, published 2018) are described below.

The nature of this data set: log P by HPLC on reversed-phase column (EEC directive 79/831 Annex V.A8). It counts as physicochemical. The conditions noted are these: for log p: HPLC on reversed-phase column (footnote a); for log p a): HPLC on reversed-phase column. The protocol: a) The determination of the [M+H]^+ by LC-MS in the acidic range was effected at pH 2.7, with acetonitrile (containing 0.1% formic acid) and water as eluents; linear gradient from 10% acetonitrile to 95% acetonitrile, instrument: Agilent 1100 LC system, Agilent MSD system, HTS PAL.
The log P values reported in the tables and preparation examples above were determined in accordance with EEC directive 79/831 Annex V.A8 by HPLC (High Performance Liquid Chromatography) using a reversed-phase column (C18). Temperature 43° C.

Molecules are shown by their SMILES. Read-outs that look alike come from different tables or passages of the source.

On to `O=C(COc1ccccc1)c1c([O-])n(Cc2ccc(Cl)nc2)c2cccc[n+]12` [Example I-1-007], for which the log p came out at 2.2.

Regarding `CCNCC(=O)c1c([O-])n(Cc2cnc(Cl)s2)c2cccc[n+]12` [Example I-1-021, 1-[(2-Chloro-1,3-thiazol-5-yl)methyl]-3-(N-ethylglycyl)-1H-imidazo[1,2-a]pyridin-4-ium-2-olate], the chromatographic logP (commonly a lipophilicity value derived from retention on a column) came to 0.57. In addition, the chromatographic logP (pH 2.7) is 0.57. Take `CCNCC(=O)c1c([O-])n(Cc2ccc(Cl)nc2)c2cccc[n+]12` [Example I-1-024]: the log p was 0.42. The same measure, in the same setting: the result for `COC(=O)COCC(=O)c1c([O-])n(Cc2ccc(Cl)nc2)c2cccc[n+]12` [Example I-1-030] reads 1.31; that for `CNC(=O)c1ccn(CC(=O)c2c([O-])n(Cc3cnc(Cl)s3)c3cccc[n+]23)n1` [Example I-1-048], 1.27. `O=C(Cn1ccnc1)c1c([O-])n(Cc2cnc(Cl)s2)c2cccc[n+]12` [Example I-1-050] displayed a log p of 0.46. `CNCC(=O)c1c([O-])n(Cc2cnc(Cl)s2)c2cccc[n+]12` [Example I-1-058] displayed a log p of 0.31. With `O=C(CCl)c1c([O-])n(Cc2ccc(Cl)nc2)c2cc(C(F)(F)F)cc[n+]12` [Example I-1-063], the log p is listed as 2.52. On to `N#Cc1cc[n+]2c(C(=O)CCl)c([O-])n(Cc3ccc(Cl)nc3)c2c1` [Example I-1-067], for which the log p stood at 1.83. Regarding `COCC(=O)c1c([O-])n(Cc2ccc(Cl)nc2)c2cc(C(F)(F)F)cc[n+]12` [Example I-1-069], the log p is 1.99. Turning to `O=C(COc1cccc(Cl)c1)c1c([O-])n(Cc2cnc(Cl)s2)c2cccc[n+]12` [Example I-1-073], the log p stood at 2.87.

Compound `O=C(COc1ccc(Cl)cc1)c1c([O-])n(Cc2cnc(Cl)s2)c2cccc[n+]12` [Example I-1-074] returned a log p of 2.84. As to `O=C(CCl)c1c([O-])n(Cc2ccc(Cl)nc2)c2c(Cl)ccc[n+]12` [Example I-1-090], the log p came to 1.99. In the case of `Cc1ccc[n+]2c(C(=O)Cn3cc(Cl)cn3)c([O-])n(Cc3cnc(Cl)s3)c12` [Example I-1-095], the log p is given as 2.27. On the same count and under the same terms, under `O=C(CCl)c1c([O-])n(Cc2ccc(Cl)nc2)c2ccc(F)c[n+]12` [Example I-1-099] stands 1.78; under `O=C(CCl)c1c([O-])n(Cc2ccc(Cl)nc2)c2c(F)ccc[n+]12` [Example I-1-100], 1.81; under `O=C(Cn1cccn1)c1c([O-])n(Cc2ccc(Cl)nc2)c2cc(C(F)(F)F)cc[n+]12` [Example I-1-102], 2.08.

In turn, `Cc1ccc2n(Cc3ccc(Cl)nc3)c([O-])c(C(=O)Cn3cccn3)[n+]2c1` [Example I-1-104] came in with a log p of 1.63.

As to `O=C(Cn1cccn1)c1c([O-])n(Cc2ccc(Cl)nc2)c2c(F)ccc[n+]12` [Example I-1-105], the log p was 1.55. Take `O=C(CCl)c1c([O-])n(Cc2cnc(Cl)s2)c2cc(Cl)cc[n+]12` [Example I-1-120]: the log p is 2.17.

The compound `COCC(=O)c1c([O-])n(Cc2cnc(Cl)s2)c2cc(Cl)cc[n+]12` [Example I-1-123] registered a log p of 1.90.

Compound `O=C(NC1CC1)c1c([O-])n(Cc2ccc(Cl)nc2)c2c(F)ccc[n+]12` [Example I-1-127] had a log p of 1.82.

Compound `COC(=O)c1c([O-])n(Cc2ccc(Cl)nc2)c2c(Cl)ccc[n+]12` [Example I-1-130] returned a log p of 1.56. On the same count and under the same terms, under `COC(=O)c1c([O-])n(Cc2ccc(Cl)nc2)c2cc(C(F)(F)F)cc[n+]12` [Example I-1-132] stands 1.93; under `CCNC(=O)c1c([O-])n(Cc2cnc(Cl)s2)c2cccc[n+]12` [Example I-1-134], 1.58. Compound `O=C(NCCc1ccc(Cl)cc1)c1c([O-])n(Cc2cnc(Cl)s2)c2cccc[n+]12` [Example I-1-139] came in with a log p of 3. Still for that read-out and setting: the result for `O=C(NC1CC1)c1c([O-])n(Cc2cnc(Cl)s2)c2c(Cl)ccc[n+]12` [Example I-1-140] reads 2.01; that for `O=C(NC1CC1)c1c([O-])n(Cc2cnc(Cl)s2)c2cc(C(F)(F)F)cc[n+]12` [Example I-1-141], 2.38; that for `O=C(NCc1ccc(Cl)cc1)c1c([O-])n(Cc2cnc(Cl)s2)c2cccc[n+]12` [Example I-1-149], 2.86. The compound `O=C(Nc1ccc(Cl)cc1)c1c([O-])n(Cc2cnc(Cl)s2)c2cccc[n+]12` [Example I-1-150] had a log p of 3.39. For the compound `O=C(Nc1ccc(Cl)nc1)c1c([O-])n(Cc2cnc(Cl)s2)c2cccc[n+]12` [Example I-1-153], the log p is listed as 3.06. `COC(=O)c1c([O-])n(Cc2ccc(Cl)nc2)c2c(F)cc(F)c[n+]12` [Example I-1-156] displayed a log p of 1.56. The same measure, in the same setting: the result for `O=C(CCl)c1c([O-])n(Cc2cncc(Cl)c2)c2cccc[n+]12` [Example I-1-162] reads 1.53; that for `O=C(CCl)c1c([O-])n(Cc2ccc(C(F)(F)F)nc2)c2cccc[n+]12` [Example I-1-163], 1.9; that for `COC(=O)c1c([O-])n(Cc2ccc(Cl)nc2)c2c(C)ccc[n+]12` [Example I-1-183], 1.66. Turning to `O=C(NC1CC1)c1c([O-])n(Cc2cnc(Cl)s2)c2cc(Cl)cc[n+]12` [Example I-1-184], the log p turned out to be 2.14.

Consider `Cc1ccc[n+]2c(C(=O)Nc3ccc(Cl)cc3)c([O-])n(Cc3ccc(Cl)nc3)c12` [Example I-1-187], for which the log p is on record as 3.41. As to `COC(=O)c1c([O-])n(Cc2ccc(Cl)nc2)c2c(OC(F)(F)F)ccc[n+]12` [Example I-1-189], the log p was 1.84. As to `COC(=O)c1c([O-])n(Cc2ccc(Cl)nc2)c2c(SC)ccc[n+]12` [Example I-1-194], the log p is 1.64. Regarding `O=C(NC1CC1)c1c([O-])n(Cc2ccc(Cl)nc2)c2c(F)cc(F)c[n+]12` [Example I-1-197], the log p was 1.99. With `CSc1ccc[n+]2c(C(=O)NC3CC3)c([O-])n(Cc3ccc(Cl)nc3)c12` [Example I-1-204], the “log p a)” value is 2.05.

`Cc1cnc(Cn2c([O-])c(C(=O)NCC(F)(F)F)[n+]3ccccc23)cn1` [Example I-1-242]: the “log p a)” value was determined as 1.57. As to `Cc1ccc[n+]2c(C(=O)NC3CCCCC3)c([O-])n(Cc3ccc(Cl)nc3)c12` [Example I-1-253], the “log p a)” value is on record as 2.72. Regarding `Cc1ccc[n+]2c(C(=O)NCC3CCCCC3)c([O-])n(Cc3ccc(Cl)nc3)c12` [Example I-1-255], the “log p a)” value stood at 3.21.

With `Cc1ccc[n+]2c(C(=O)NCC3CCCC3)c([O-])n(Cc3ccc(Cl)nc3)c12` [Example I-1-256], the “log p a)” value worked out at 2.8. Turning to `Cc1ccc[n+]2c(C(=O)NC3(C#N)CCCCC3)c([O-])n(Cc3ccc(Cl)nc3)c12` [Example I-1-263], the “log p a)” value is on record as 2.62. The same measure, in the same setting: under `Cc1ccc[n+]2c(C(=O)Nc3ccccn3)c([O-])n(Cc3ccc(Cl)nc3)c12` [Example I-1-264] stands 1.68; under `N#CC1(NC(=O)c2c([O-])n(Cc3cnc(Cl)s3)c3cccc[n+]23)CC1` [Example I-1-270], 1.58; under `O=C(c1c([O-])n(Cc2cnc(Cl)s2)c2cccc[n+]12)N1CCCC1` [Example I-1-273], 1.52.
